From patent publication US12458643B2, “Antidepressant/anxiolytic drug in which PAC1 receptor antagonist is used” (KAGOSHIMA UNIVERSITY, priority 2020, dated 2025)

What was measured:
Assay type in all cases: in vivo, mouse
normal mice [1] = test: Forced swim test in normal mice; conditions: normal male C57BL/6J mice, 30 mg/kg i.p., 60 min after administration, 6 min swim
Method: The effects of PA-8 and PA-81004 on normal mice were evaluated by a forced swim test (test that exploits the switch of mice caused to swim in an inevitable environment from active escape behavior to a passive state of floating or immobility; in this test, depressive-like behavior is evaluated by placing the mice in an acrylic cylinder of 20 cm in diameter and 25 cm in height filled with water (water temperature: 25° C.) up to a depth of 15 cm, and measuring a passive floating or immobility time).
Male C57BL/6J mice (8 to 12 weeks old) were acclimatized to a laboratory (illuminance: 200 lx) for 60 minutes. Then, a vehicle (10% DMSO solution; dissolved in saline; n=9), PA-8 (30 mg/kg; n=9) or PA-81004 (30 mg/kg; n=9) was intraperitoneally administered thereto (0.1 mL/10 g). After a lapse of 60 minutes after administration, the mice were forced to swim for 6 minutes, and an immobility time was measured.
The effects of PA-9 and PA-915 on normal mice were evaluated by the forced swim test.
Male C57BL/6J mice (8 to 12 weeks old) were acclimatized to a laboratory (illuminance: 200 lx) for 60 minutes. Then, a vehicle (10% DMSO solution; dissolved in saline; n=10), PA-9 (30 mg/kg; n=9) or PA-915 (30 mg/kg; n=9) was intraperitoneally administered thereto (0.1 mL/10 g). After a lapse of 60 minutes after administration, the mice were forced to swim for 6 minutes, and an immobility time was measured.

normal mice [2] = test: Elevated plus maze test in normal mice; conditions: normal male C57BL/6J mice, 30 mg/kg i.p., 60 min after administration, 5 min test
Method: The effects of PA-8 and PA-81004 on normal mice were evaluated by an elevated plus maze test (test that exploits the properties of mice to avoid heights and prefer to stay near walls; in this test, anxiety-like behavior is evaluated by placing the mice at the center of a maze disposed at a height of 50 cm in which a 26 cm long and 8 cm wide open arm without walls and a closed-arm with walls are disposed in a cross shape, and measuring a time spent in the open arm and the number of entries thereto).
Male C57BL/6J mice (8 to 12 weeks old) were acclimatized to a laboratory (illuminance: 50 lx) for 60 minutes. Then, a vehicle (10% DMSO solution; dissolved in saline; n=13), PA-8 (30 mg/kg; n=12) or PA-81004 (30 mg/kg; n=12) was intraperitoneally administered thereto (0.1 mL/10 g). After a lapse of 60 minutes after administration, the test was conducted for 5 minutes. The results are shown in FIG. 3 (A: total distance traveled, B: the number of open arm (course without walls) entries, C: time spent in the open arm).
The effects of PA-9 and PA-915 on normal mice were evaluated by the elevated plus maze test.
Male C57BL/6J mice (8 to 12 weeks old) were acclimatized to a laboratory (illuminance: 50 lx) for 60 minutes. Then, a vehicle (10% DMSO solution; dissolved in saline; n=8), PA-9 (30 mg/kg; n=8) or PA-915 (30 mg/kg; n=7) was intraperitoneally administered thereto (0.1 mL/10 g). After a lapse of 60 minutes after administration, the test was conducted for 5 minutes. The results are shown in FIG. 7 (A: total distance traveled, B: the number of open arm entries, C: time spent in the open arm).

[3] = test system: single-restraint stress mice; test: Single-restraint stress-induced anxiety-like behavior, light-dark test; conditions: 30 mg/kg i.p. 30 min before 30 min restraint; 10 min test
Method: Male C57BL/6J mice (8 to 12 weeks old) were acclimatized to a laboratory (illuminance: 330 lx) for 60 minutes. Then, a vehicle (10% DMSO solution; dissolved in saline; n=9), PA-8 (30 mg/kg; n=9) or PA-81004 (30 mg/kg; n=10) was intraperitoneally administered thereto (0.1 mL/10 g). After a lapse of 30 minutes after administration, restraint stress (stress caused by holding the mice in tubes of 2.8 cm in diameter with a hole for breathing) was applied thereto for 30 minutes. The light-dark test (10 min) was conducted from immediately after the completion of restraint. Mice that freely behaved in a home cage for 30 minutes without being held and without accessing water and food were used as a control (n=12). The results are shown in FIG. 10 (A: time spent in the light box, B: the number of transitions between the light and dark boxes; light box illuminance: 330 lx). The data was indicated by mean±standard error. **P<0.01, *P<0.05 (One-way ANOVA followed by Tukey-Kramer test). […] Male C57BL/6J mice (8 to 12 weeks old) were acclimatized to a laboratory (illuminance: 330 lx) for 60 minutes. Then, a vehicle (10% DMSO solution; dissolved in saline; n=11), PA-9 (30 mg/kg; n=8) or PA-915 (30 mg/kg; n=9) was intraperitoneally administered thereto (0.1 mL/10 g). After a lapse of 30 minutes after administration, restraint stress (stress caused by holding the mice in tubes of 2.8 cm in diameter with a hole for breathing) was applied thereto for 30 minutes. The light-dark test (10 min) was conducted from immediately after the completion of restraint. Mice that freely behaved in a home cage for 30 minutes without being held and without accessing water and food were used as a control (n=11). The results are shown in FIG. 12 (A: time spent in the light box, B: the number of transitions between the light and dark boxes; light box illuminance: 330 lx). The data was indicated by mean±standard error. **P<0.01, *P<0.05 (One-way ANOVA followed by Tukey-Kramer test).

Compound | pharmacological action in forced swim test (immobility time) (normal mice [1]) | pharmacological action in elevated plus maze test (total distance, open arm entries, time in open arm) (normal mice [2]) | effect on single-restraint stress-induced anxiety-like behavior (light-dark test) [3]
C=CCOc1ccc(C2CC(=O)Nc3nc(N)[nH]c(=O)c32)cc1OC (stereo not drawn) [PA-8] | no pharmacological action | no pharmacological action | improving effects
O=C(NCCc1c[nH]cn1)C1CC(=O)N(c2n[nH]c3ccccc23)C1 (stereo not drawn) [PA-9] | no pharmacological action | no pharmacological action | improving effects
Nc1nc2c(c(=O)[nH]1)C(c1cccc(OC(F)(F)F)c1)CC(=O)N2 (stereo not drawn) [PA-81004, 2-Amino-5-(3-trifluoromethoxyphenyl)-5,8-dihydro-3H,6H-pyrido[2,3-d]pyrimidine-4,7-dione] | no pharmacological action | no pharmacological action | improving effects
